Experimental data taken from US20030170181A1, “Method for preventing abuse of methylphenidate” (priority 1999, published 2003).
Values joined by “and” are separate entries in the source; they are usually repeats but may differ in a detail not shown here. Equal entries are not always repeated. Where two headings read alike, the source gives them in different places.

Columns and labels:
[1] = cited from earlier work
males with ADHD = assay: Combined pharmacokinetic/pharmacodynamic study of dose regimens of methylphenidate on activity and attention (OPTAX measures); assay type: in vivo, human; conditions: pulsatile dosing schedule 2 (PD2): 0.4, 0.4, 0.2 mg/kg at 0, 240, 480 min; compared with CD1, CD2, PD1; twelve-hour day
Source text: Combined pharmacokinetic/pharmacodynamic studies of methylphenidate using different dosage regiments were designed to determine if regimens that produced stable or rising methylphenidate levels had benefits, or if fluctuating levels were necessary to prevent rapid development of tolerance (tachyphylaxis). The experimental subjects were a group of seventy-three males with ADHD recruited from the general population through a newspaper advertisement. Each subject was between the ages of 9 to 12, was objectively hyperactive, and responded positively to methylphenidate. Hyperactivity levels of each boy were determined through OPTAX™ measures, a clinical tool that provides high-resolution assessment of movement patterns during performance of a novel, monotonous, yet challenging cognitive vigilance task. Through the OPTAX™ measures, it is possible to identify differences between drug regimens based solely on dosage schedule, while holding total daily dose constant. Of the 73 original boys, thirteen were excluded based on lack of symptoms by parent interview or on lack of objective hyperactivity greater than 25% over controls on OPTAX™ measures. […]
The double blind parallel group study evaluated the efficacy of methylphenidate for the treatment of ADHD when given in a near continuous amount throughout the day and in pulsatile or fluctuating doses throughout the day. […]

[2] = Pharmacokinetics of d-threo and l-threo methylphenidate in plasma after intravenous administration of 10 mg racemic methylphenidate; conditions: for CL / MRT / Vdss / t½ / clearance / Vd / half-life: plasma, IV 10 mg racemic methylphenidate; for clearance / Vd / half-life: male, human, iv, 10 mg; for clearance: CL; for Vd: Vdss; for half-life: t½; for plasma levels of d-MPH versus l-MPH: methylphenidate administered intravenously, up to 1.5 hours post dose
Procedure: Eleven healthy male subjects were administered 10 mg of racemic methylphenidate (Ritalin®) by intravenous (IV) administration and 40 mg of racemic methylphenidate (Ritalin®) by immediate release (IR) oral administration.

[3] = Pharmacokinetics of d-threo and l-threo methylphenidate in plasma after oral administration of 40 mg immediate release racemic methylphenidate; assay type: in vivo, human; conditions: for fraction metabolized / bioavailability: after oral administration of commercially available racemic methylphenidate; for Cmax / Tmax / t½ / bioavailability / half-life: plasma; for Cmax / Tmax / t½ / half-life: oral 40 mg immediate release methylphenidate; for bioavailability: read-out: bioavailability in blood plasma; for half-life: read-out: t½ (converted)
[4] = racemic d,l-threo methylphenidate
[5] = individual subjects 1-11, listed as d
[6] = male, human, po, 40 mg, mean of 11 subjects, read-out: Cmax
[7] = male, human, po, 40 mg, mean of 11 subjects, read-out: Tmax
[8] = male, human, po, 40 mg, mean of 11 subjects
[9] = individual subjects 1-11, listed as l

SMILES	clearance ([2]; mean of 11 subjects) [mL/min/kg]	Vd ([2]; mean of 11 subjects) [L/kg]	half-life ([2]; mean of 11 subjects) [h]	MRT ([2]; mean of 11 subjects) [H]	plasma levels of d-MPH versus l-MPH [2]	fraction metabolized [3]	bioavailability ([3]; male, human, 40 mg) [%]	Cmax [3, 6] [ng/mL]	Tmax [3, 7] [h]	half-life [3, 8] [h]	also measured
COC(=O)C(c1ccccc1)C1CCCCN1 (racemic) [methylphenidate, α-phenyl-2-piperidine-acetic acid methyl ester]											time of maximum drug concentration ([1]; after oral administration): about two; duration of action [1, 4]: one to four; pharmacokinetic elimination half-life [1, 4]: two to three; improvement in activity (males with ADHD): most consistent improvement; improvement in attention (males with ADHD): most consistent improvement
COC(=O)[C@H](c1ccccc1)[C@H]1CCCCN1 [d-MPH, d-threo-methylphenidate]	6.67	2.65	5.96	6.53	approximately equivalent plasma levels	approximately 78%	~22	18.1	2.4	5.69	CL [2, 5]: 0.32 L/kg · h^−1 and 0.45 L/kg · h^−1 and 0.33 L/kg · h^−1 and 0.28 L/kg · h^−1 and 0.53 L/kg · h^−1 and 0.20 L/kg · h^−1 and 0.63 L/kg · h^−1 and 0.34 L/kg · h^−1 and 0.44 L/kg · h^−1 and 0.41 L/kg · h^−1 and 0.42 L/kg · h^−1; MRT [2, 5]: 6.49 H and 4.63 H and 5.23 H and 5.75 H and 6.25 H and 4.68 H and 6.79 H and 5.86 H and 7.90 H and 9.44 H and 8.80 H; Vdss [2, 5]: 2.09 L/kg and 2.10 L/kg and 1.73 L/kg and 1.59 L/kg and 3.28 L/kg and 0.92 L/kg and 4.27 L/kg and 2.01 L/kg and 3.51 L/kg and 3.91 L/kg and 3.68 L/kg; t½ [2, 5]: 4.88 h and 4.81 h and 4.17 h and 5.38 h and 6.65 h and 3.97 h and 6.93 h and 4.65 h and 6.80 h and 8.68 h and 8.62 h; Cmax [3, 5]: 12.42 ng/mL and 16.49 ng/mL and 13.81 ng/mL and 22.02 ng/mL and 18.52 ng/mL and 24.54 ng/mL and 22.48 ng/mL and 18.25 ng/mL and 22.91 ng/mL and 13.24 ng/mL; Tmax [3, 5]: 2.0 h and 3.0 h and 1.0 h and 4.0 h; t½ [3, 5]: 5.44 h and 6.67 h and 4.44 h and 5.83 h and 4.14 h and 6.22 h and 4.81 h and 6.31 h and 6.09 h and 5.29 h and 8.38 h; Cmax ([3]; male, human, po, 40 mg, individual subjects 1-11, read-out: Cmax): 14.7 ng/mL
COC(=O)[C@@H](c1ccccc1)[C@@H]1CCCCN1 [l-MPH, l-threo methylphenidate]	12.2	1.8	3.61	2.44	approximately equivalent plasma levels	approximately 95%	5	2.98	2.2	3.93	CL [2, 9]: 0.56 L/kg · h^−1 and 0.82 L/kg · h^−1 and 0.59 L/kg · h^−1 and 0.41 L/kg · h^−1 and 1.05 L/kg · h^−1 and 0.26 L/kg · h^−1 and 0.89 L/kg · h^−1 and 0.49 L/kg · h^−1 and 0.78 L/kg · h^−1 and 1.11 L/kg · h^−1 and 1.02 L/kg · h^−1; MRT [2, 9]: 2.28 H and 2.02 H and 2.37 H and 2.63 H and 2.12 H and 2.50 H and 3.34 H and 1.42 H and 3.03 H and 2.84 H; Vdss [2, 9]: 1.27 L/kg and 1.86 L/kg and 1.19 L/kg and 0.97 L/kg and 2.77 L/kg and 0.56 L/kg and 2.23 L/kg and 1.63 L/kg and 1.03 L/kg and 3.36 L/kg and 2.89 L/kg; t½ [2, 9]: 2.08 h and 4.19 h and 2.63 h and 3.57 h and 5.11 h and 2.93 h and 2.21 h and 3.47 h and 4.06 h and 5.23 h; Cmax [3, 9]: 4.23 ng/mL and 2.49 ng/mL and 3.26 ng/mL and 1.59 ng/mL and 3.61 ng/mL and 1.49 ng/mL and 2.88 ng/mL and 4.01 ng/mL and 2.27 ng/mL and 3.03 ng/mL and 3.95 ng/mL; Tmax [3, 9]: 2.0 h and 3.0 h and 1.0 h and 1.5 h and 4.0 h; t½ [3, 9]: 4.61 h and 2.48 h and 4.06 h and 3.80 h and 3.09 h and 3.91 h and 4.24 h and 3.84 h and 3.55 h and 4.23 h and 5.41 h
